Assay results as given in patent US20020026053A1, “Novel 3-(substituted) -2- indolinones compounds and use thereof as inhibitors of protein kinase activity” (priority 1997, published 2002).

Molecular target: T1, EGFR (Homo sapiens, UniProt P00533)
T1 construct: endogenous in cells; host or cells: A431 cells (lysate, captured with SUMO1 anti-EGFR antibody)
Assay: Biochemical EGFR Assay
Parameters: concentration or dose not given beside the values
How it was run: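 Readout is ABTS absorbance at 410 nm after anti-phosphotyrosine and HRP-antibody detection of EGFR autophosphorylation. The kinase was immunocaptured from A431 lysate, exposed 30 min to test compound diluted 1:10 in TBS, then phosphorylated for 5 min with ATP/MnCl2 before an EDTA stop.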

T1 sequence (P00533 25-1210): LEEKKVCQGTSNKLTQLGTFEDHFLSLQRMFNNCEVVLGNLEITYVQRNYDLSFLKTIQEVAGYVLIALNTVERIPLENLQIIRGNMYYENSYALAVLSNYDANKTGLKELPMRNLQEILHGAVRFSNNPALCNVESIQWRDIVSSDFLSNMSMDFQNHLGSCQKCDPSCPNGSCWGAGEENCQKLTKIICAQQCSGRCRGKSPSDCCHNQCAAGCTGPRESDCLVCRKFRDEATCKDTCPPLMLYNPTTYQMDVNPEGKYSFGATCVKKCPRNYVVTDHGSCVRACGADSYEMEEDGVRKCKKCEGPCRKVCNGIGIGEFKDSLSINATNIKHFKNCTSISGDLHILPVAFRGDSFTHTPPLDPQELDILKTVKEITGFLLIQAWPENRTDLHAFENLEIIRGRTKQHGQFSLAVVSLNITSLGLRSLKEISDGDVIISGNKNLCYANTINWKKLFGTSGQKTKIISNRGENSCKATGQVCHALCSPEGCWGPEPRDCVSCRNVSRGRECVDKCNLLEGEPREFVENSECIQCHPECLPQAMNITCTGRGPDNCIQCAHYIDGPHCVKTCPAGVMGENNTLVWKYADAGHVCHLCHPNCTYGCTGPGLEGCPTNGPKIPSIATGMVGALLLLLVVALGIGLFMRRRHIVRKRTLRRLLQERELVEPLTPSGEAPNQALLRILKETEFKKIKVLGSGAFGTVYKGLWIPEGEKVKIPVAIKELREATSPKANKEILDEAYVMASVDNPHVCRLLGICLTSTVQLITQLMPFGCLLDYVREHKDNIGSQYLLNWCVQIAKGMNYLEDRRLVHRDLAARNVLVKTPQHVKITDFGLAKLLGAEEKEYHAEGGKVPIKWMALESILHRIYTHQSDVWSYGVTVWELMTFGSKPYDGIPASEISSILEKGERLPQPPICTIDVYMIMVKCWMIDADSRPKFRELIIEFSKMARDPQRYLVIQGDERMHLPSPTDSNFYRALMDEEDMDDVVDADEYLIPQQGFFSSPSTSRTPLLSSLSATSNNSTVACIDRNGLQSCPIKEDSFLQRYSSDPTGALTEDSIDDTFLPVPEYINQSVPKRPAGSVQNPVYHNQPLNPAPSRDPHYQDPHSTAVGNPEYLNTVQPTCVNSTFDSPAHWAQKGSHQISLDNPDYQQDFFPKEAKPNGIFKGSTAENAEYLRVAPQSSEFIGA

Row | SMILES | Biochem EGFR % Inhibition (P.167) [%]
1 | Cc1c(Br)cc(Br)c2c1C(=Cc1ccc(O)cc1)C(=O)N2 [10719/H07] | −2.8
2 | Cc1c(Br)cc(Br)c2c1C(=Cc1ccc(N(C)C)cc1)C(=O)N2 [10719/H08] | 2.9
3 | Cc1c(Br)cc(Br)c2c1C(=Cc1ccc(F)cc1Cl)C(=O)N2 [10719/H09] | −33.5
4 | Cc1c(Br)cc(Br)c2c1C(=Cc1cccc([N+](=O)[O-])c1)C(=O)N2 [10719/H10] | 14.6
5 | Cc1c(Br)cc(Br)c2c1C(=Cc1ccc(F)cc1C(F)(F)F)C(=O)N2 [10719/H11] | −12.0
6 | Cc1c(Br)cc(Br)c2c1C(=Cc1c(F)cc(F)cc1F)C(=O)N2 [10720/H02] | 17.0
7 | COc1cc(O)ccc1C=C1C(=O)Nc2c(Br)cc(Br)c(C)c21 [10720/H03] | −13.9
8 | N#Cc1ccccc1C=C1C(=O)Nc2ccc(CCCl)cc21 [10735/G07] | 4.6
9 | O=C1Nc2ccc(CCCl)cc2C1=Cc1c(F)cccc1F [10735/G08] | 1.6
10 | O=C1Nc2ccc(CCCl)cc2C1=Cc1cccc2ccccc12 [10735/G09] | 19.8
11 | O=C1Nc2ccc(CCCl)cc2C1=Cc1ccc(Cl)cc1Cl [10735/G10] | 4.5
12 | O=C1Nc2ccc(CCCl)cc2C1=Cc1ccc(-c2ccccc2)cc1 [10735/G11] | 2.9
13 | Cc1ccccc1C=C1C(=O)Nc2c(Br)cc(Br)c(C)c21 [10735/H02] | 3.6
14 | Cc1c(Br)cc(Br)c2c1C(=Cc1ccc(F)c(F)c1)C(=O)N2 [10735/H03] | −1.0
15 | Cc1c(Br)cc(Br)c2c1C(=Cc1cc(F)cc(F)c1)C(=O)N2 [10735/H04] | −9.3
16 | Cc1c(Br)cc(Br)c2c1C(=Cc1cccc(C(F)(F)F)c1)C(=O)N2 [10735/H05] | −0.3
17 | Cc1c(Br)cc(Br)c2c1C(=Cc1cc(C(F)(F)F)cc(C(F)(F)F)c1)C(=O)N2 [10735/H06] | −14.2
18 | Cc1c(Br)cc(Br)c2c1C(=Cc1ccccc1C#N)C(=O)N2 [10735/H07] | 3.8
19 | Cc1c(Br)cc(Br)c2c1C(=Cc1c(F)cccc1F)C(=O)N2 [10735/H08] | 6.8
20 | Cc1c(Br)cc(Br)c2c1C(=Cc1cccc3ccccc13)C(=O)N2 [10735/H09] | −10.7

Row | SMILES | Biochem EGFR % Inhibition (P.167) [%]
21 | Cc1c(Br)cc(Br)c2c1C(=Cc1ccc(Cl)cc1Cl)C(=O)N2 [10735/H10] | −16.3
22 | Cc1c(Br)cc(Br)c2c1C(=Cc1ccc(-c3ccccc3)cc1)C(=O)N2 [10735/H11] | −4.2
23 | O=C1Nc2c(Br)cc(Br)cc2C1=Cc1ccc(Cl)cc1 [10736/A02] | 7.7
24 | O=C1Nc2c(Br)cc(Br)cc2C1=Cc1ccccc1C(F)(F)F [10736/A03] | 24.2
25 | Cc1cccc(C=C2C(=O)Nc3c(Br)cc(Br)cc32)c1 [10736/A04] | 14.1
26 | Cc1ccc(C=C2C(=O)Nc3c(Br)cc(Br)cc32)cc1 [10736/A05] | 80.1
27 | O=C1Nc2c(Br)cc(Br)cc2C1=Cc1cccc(Cl)c1 [10736/A06] | 34.4
28 | O=C1Nc2c(Br)cc(Br)cc2C1=Cc1cccc(F)c1 [10736/A07] | 30.2
29 | O=C1Nc2c(Br)cc(Br)cc2C1=Cc1ccccc1F [10736/A08] | 27.6
30 | CCc1ccc(C=C2C(=O)Nc3c(Br)cc(Br)cc32)cc1 [10736/A09] | 20.0
31 | COc1cccc(C=C2C(=O)Nc3c(Br)cc(Br)cc32)c1 [10736/A10] | −0.1
32 | O=C1Nc2c(Br)cc(Br)cc2C1=Cc1ccccc1Cl [10736/A11] | −29.3
33 | O=C1Nc2ccc(I)cc2C1=Cc1ccc(Cl)cc1 [10736/B02] | −38.8
34 | O=C1Nc2ccc(I)cc2C1=Cc1ccccc1C(F)(F)F [10736/B03] | −51.7
35 | Cc1cccc(C=C2C(=O)Nc3ccc(I)cc32)c1 [10736/B04] | −9.0
36 | Cc1ccc(C=C2C(=O)Nc3ccc(I)cc32)cc1 [10736/B05] | 14.9
37 | O=C1Nc2ccc(I)cc2C1=Cc1cccc(Cl)c1 [10736/B06] | 12.6
38 | O=C1Nc2ccc(I)cc2C1=Cc1cccc(F)c1 [10736/B07] | 8.4
39 | O=C1Nc2ccc(I)cc2C1=Cc1ccccc1F [10736/B08] | 8.4
40 | CCc1ccc(C=C2C(=O)Nc3ccc(I)cc32)cc1 [10736/B09] | −3.5
